Experimental data reported in patent US20240034733A1, “KRAS G12D INHIBITORS” (Mirati Therapeutics, Inc., priority 2020, published 2024).

Tests used:
[1] = target: T1, GDP-loaded recombinant human KRAS G12D (Homo sapiens, UniProt P01116, G12D); assay: KRas G12D Binding Assay (TR-FRET displacement of Cy5 labelled tracer); details: 60 minute incubation at 22° C.
T1 construct: corresponding to amino acids 1:169, produced at Array BioPharma; biotin (biotinylated); made in house
Description: This Example illustrates that exemplary compounds of the present invention bind to KRas G12D and are capable of displacing a labeled tracer ligand occupying the KRas G12D binding site.
The ability of a compound to bind to KRAS G12D was measured using a TR-FRET displacement assay. Biotinylated GDP-loaded recombinant human KRAS G12D (corresponding to amino acids 1:169, produced at Array BioPharma) was incubated with a custom-made Cy5 labelled tracer, europium labelled streptavidin and compound (2% DMSO final) in buffer (50 mM HEPES [pH 7.5], 5 mM MgCl2, 0.005% Tween-20 & 1 mM DTT). After a 60 minute incubation at 22° C., the reaction was measured using a PerkinElmer EnVision multimode plate reader via TR-FRET dual wavelength detection, and the percent of control (POC) calculated using a ratiometric emission factor. […] The POC values were fit to a 4-parameter logistic curve and the IC50 value was determined as the concentration where the curve crosses 50 POC.

[2] = test system: KRas G12D-mediated phosphorylation of ERK; assay: Inhibition of KRas G12D-mediated phosphorylation of ERK in AGS cells; assay type: cell-based; details: Homo sapiens; AGS cells expressing G12D, 3 hours, phospho-ERK normalized to GAPDH
Description: AGS cells (ATCC CRL-1739) expressing G12D were grown in DMEM medium supplemented with 10% fetal bovine serum, 10 mM HEPES, and Penicillin/Streptomycin. Cells were plated in tissue culture treated 96 well plates at a density of 40,000 cells/well and allowed to attach for 12-14 hours. Diluted compounds were then added in a final concentration of 0.5% DMSO. After 3 hours, the medium was removed, 150 μl of 4.0% formaldehyde was added and the plates incubated at room temperature for 20 minutes. The plates were washed with PBS, and permeabilized with 150p of ice cold 100% methanol for 10 minutes. Non-specific antibody binding to the plates was blocked using 100 μL Licor blocking buffer (Li-Cor Biotechnology, Lincoln NE) for 1 hour at room temperature.
The amount of phosho-ERK was determined using an antibody specific for the phosphorylated form of ERK and compared to the amount of GAPDH. Primary antibodies used for the detection were added as follows: Phospho-ERK (Cell Signaling cs-9101) diluted 1:500 and GAPDH (Millipore MAB374) diluted 1:5000 in Licor block+0.05% Tween 20. The plates were incubated for 2 hours at room temperature. The plates were washed with PBS+0.05% Tween 20.
Secondary antibodies used to visualize primary antibodies were added as follows: Anti-rabbit-680 diluted 1:1000 and Anti-mouse-800 diluted 1:1000 both in Licor block+0.05% Tween20, and were incubated for 1 hour at room temperature. The plates were washed with PBS +0.05% Tween 20. A 100 μl aliquot of PBS was added to each well and the plates were read on a Li-Cor Odyssey CLX plate reader phospho-ERK (Thr202/Tyr204) signal was normalized to the GAPDH signal for each well and percent of DMSO control values were calculated. IC50 values were generated using a 4-parameter fit of the dose response curve

T1 sequence (P01116 1-169 isoform P01116-2 G12D): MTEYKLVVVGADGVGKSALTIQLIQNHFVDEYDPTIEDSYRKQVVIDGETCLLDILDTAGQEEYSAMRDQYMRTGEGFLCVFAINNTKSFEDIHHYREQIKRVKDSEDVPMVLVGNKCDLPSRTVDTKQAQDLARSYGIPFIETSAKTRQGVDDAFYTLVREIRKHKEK

| SMILES | IC50 [1] [nM] | IC50 [2] [nM] |
| --- | --- | --- |
| Oc1cc(-c2ccc3c(N4CC5CCC(C4)N5)nc(OCC45CCCN4C[C@H](F)C5)nc3c2F)c2ccccc2c1 (mixture of isomers) [Example 28, 4-(4-((1R,5S)-3,8-diazabicyclo[3.2.1]octan-3-yl)-8-fluoro-2-(((2R,7aS)-2-fluorotetrahydro-1H-pyrrolizin-7a(5H)-yl)methoxy)quinazolin-7-yl)naphthalen-2-ol] | 0.6 | 171 |
| CN1CCC[C@H]1COc1nc(N2C[C@H]3CC[C@@H](C2)N3)c2cc(Oc3ccccc3C#N)c(-c3cc(O)cc4ccccc34)c(F)c2n1 [Example 24, 2-((4-((1R,5S)-3,8-diazabicyclo[3.2.1]octan-3-yl)-8-fluoro-7-(3-hydroxynaphthalen-1-yl)-2-(((S)-1-methylpyrrolidin-2-yl)methoxy)quinazolin-6-yl)oxy)benzonitrile] | 1.4 | 377 |
| CN1CCC[C@H]1COc1nc(N2C[C@H]3CC[C@@H](C2)N3)c2cc(Oc3c(Cl)cccc3C#N)c(-c3cc(O)cc4ccccc34)c(F)c2n1 [Example 25, 2-((4-((1R,5S)-3,8-diazabicyclo[3.2.1]octan-3-yl)-8-fluoro-7-(3-hydroxynaphthalen-1-yl)-2-(((S)-1-methylpyrrolidin-2-yl)methoxy)quinazolin-6-yl)oxy)-3-chlorobenzonitrile] | 5.3 | 784 |
| Oc1cc(-c2ccc3c(N4C[C@H]5CC[C@@H](C4)N5)nc(OCC45CCCN4CCC5)nc3c2F)c2ccccc2c1 [Example 3, 4-(4-((1R,5S)-3,8-diazabicyclo[3.2.1]octan-3-yl)-8-fluoro-2-((tetrahydro-1H-pyrrolizin-7a(5H)-yl)methoxy)quinazolin-7-yl)naphthalen-2-ol] | 0.5 | 95 |
| N#Cc1ccccc1Oc1cc2c(N3C[C@H]4CC[C@@H](C3)N4)nc(OCC34CCCN3CCC4)nc2cc1-c1cc(O)cc2ccccc12 [Example 21, 2-((4-((1R,5S)-3,8-diazabicyclo[3.2.1]octan-3-yl)-7-(3-hydroxynaphthalen-1-yl)-2-((tetrahydro-1H-pyrrolizin-7a(5H)-yl)methoxy)quinazolin-6-yl)oxy)benzonitrile] | 1 | 1270 |
| N#Cc1ccccc1Oc1cc2c(N3CC4CCC(C3)N4)nc(OCC34CCCN3C[C@H](F)C4)nc2cc1-c1cc(O)cc2ccccc12 (mixture of isomers) [Example 22, 2-((4-((1R,5R)-3,8-diazabicyclo[3.2.1]octan-3-yl)-2-(((2R,7aS)-2-fluorotetrahydro-1H-pyrrolizin-7a(5H)-yl)methoxy)-7-(3-hydroxynaphthalen-1-yl)quinazolin-6-yl)oxy)benzonitrile] | 1.7 | 140 |
| CN1CCC[C@H]1COc1nc(N2C[C@H]3CC[C@@H](C2)N3)c2cc(Oc3ccccc3C#N)c(-c3cc(O)cc4ccccc34)cc2n1 [Example 20, 2-((4-((1R,5S)-3,8-diazabicyclo[3.2.1]octan-3-yl)-7-(3-hydroxynaphthalen-1-yl)-2-(((S)-1-methylpyrrolidin-2-yl)methoxy)quinazolin-6-yl)oxy)benzonitrile] | 1.6 | 2160 |
| Oc1cc(-c2ccc3c(N4C[C@H]5CC[C@@H](C4)N5)nc(OCC45CCCN4CCC5)nc3c2F)c2c(Cl)cccc2c1 [Example 4, 4-(4-((1R,5S)-3,8-diazabicyclo[3.2.1]octan-3-yl)-8-fluoro-2-((tetrahydro-1H-pyrrolizin-7a(5H)-yl)methoxy)quinazolin-7-yl)-5-chloronaphthalen-2-ol] | 0.7 | 21 |
| COc1ccc(F)c(Oc2cc3c(N4C[C@H]5CC[C@@H](C4)N5)nc(OC[C@@H]4CCCN4C)nc3cc2-c2cc(O)cc3ccccc23)c1 [Example 17, 4-(4-((1R,5S)-3,8-diazabicyclo[3.2.1]octan-3-yl)-6-(2-fluoro-5-methoxyphenoxy)-2-(((S)-1-methylpyrrolidin-2-yl)methoxy)quinazolin-7-yl)naphthalen-2-ol bis(2,2,2-trifluoroacetate)] | 8 | 5560 |
| Oc1cc(-c2cc3nc(OC[C@@]45CCCN4C[C@H](F)C5)nc(N4C[C@H]5CC[C@@H](C4)N5)c3cc2Oc2ccccc2Cl)c2c(Cl)cccc2c1 [Example 23, 4-(4-((1R,5S)-3,8-diazabicyclo[3.2.1]octan-3-yl)-6-(2-chlorophenoxy)-2-(((2R,7aS)-2-fluorotetrahydro-1H-pyrrolizin-7a(5H)-yl)methoxy)quinazolin-7-yl)-5-chloronaphthalen-2-ol] | 6.6 | 264 |
| N#Cc1ccccc1Oc1cc2c(N3CC4CCC(C3)N4)nc(OCC34CCCN3C[C@H](F)C4)nc2c(F)c1-c1cc(O)cc2ccccc12 (mixture of isomers) [Example 27, 2-((4-((1R,5S)-3,8-diazabicyclo[3.2.1]octan-3-yl)-8-fluoro-2-(((2R,7aS)-2-fluorotetrahydro-1H-pyrrolizin-7a(5H)-yl)methoxy)-7-(3-hydroxynaphthalen-1-yl)quinazolin-6-yl)oxy)benzonitrile] | 3.6 | 44 |
| Oc1cc(-c2ccc3c(N4CC5CCC(C4)N5)nc(OCC45CCCN4C[C@H](F)C5)nc3c2F)c2c(Cl)cccc2c1 (mixture of isomers) [Example 5, 4-(4-((1R,5S)-3,8-diazabicyclo[3.2.1]octan-3-yl)-8-fluoro-2-(((2R,7aS)-2-fluorotetrahydro-1H-pyrrolizin-7a(5H)-yl)methoxy)quinazolin-7-yl)-5-chloronaphthalen-2-ol] | 1.4 | 42 |
| Oc1cccc(F)c1-c1c(Cl)cc2c(N3CC4CCC(C3)N4)nc(OCC34CCCN3C[C@H](F)C4)nc2c1F (mixture of isomers) [Example 6, 2-(4-((1R,5S)-3,8-diazabicyclo[3.2.1]octan-3-yl)-6-chloro-8-fluoro-2-(((2R,7aS)-2-fluorotetrahydro-1H-pyrrolizin-7a(5H)-yl)methoxy)quinazolin-7-yl)-3-fluorophenol] | 3.5 | 1800 |
| CN1CCC[C@H]1COc1nc(N2CC3CCC(C2)N3)c2cc(Oc3cccnc3)c(-c3cc(O)cc4ccccc34)cc2n1 [Example 1] | 7 | 8390 |
| COc1ccc(Oc2cc3c(N4C[C@H]5CC[C@@H](C4)N5)nc(OC[C@@H]4CCCN4C)nc3cc2-c2cc(O)cc3ccccc23)c(Cl)c1 [Example 18, 4-(4-((1R,5S)-3,8-diazabicyclo[3.2.1]octan-3-yl)-6-(2-chloro-4-methoxyphenoxy)-2-(((S)-1-methylpyrrolidin-2-yl)methoxy)quinazolin-7-yl)naphthalen-2-ol] | 11.5 | 1370 |
| CN1CCC[C@H]1COc1nc(N2C[C@H]3CC[C@@H](C2)N3)c2cc(Oc3ccccc3Cl)c(-c3cc(O)cc4ccccc34)cc2n1 [Example 19, 4-(4-((1R,5S)-3,8-diazabicyclo[3.2.1]octan-3-yl)-6-(2-chlorophenoxy)-2-(((S)-1-methylpyrrolidin-2-yl)methoxy)quinazolin-7-yl)naphthalen-2-ol] | 1.3 | 1700 |
| CN1CCC[C@H]1COc1nc(N2C[C@H]3CC[C@@H](C2)N3)c2cc(Oc3cccc(F)c3C#N)c(-c3cc(O)cc4ccccc34)c(F)c2n1 [Example 26, 2-((4-((1R,5S)-3,8-diazabicyclo[3.2.1]octan-3-yl)-8-fluoro-7-(3-hydroxynaphthalen-1-yl)-2-(((S)-1-methylpyrrolidin-2-yl)methoxy)quinazolin-6-yl)oxy)-6-fluorobenzonitrile] | 7.4 | 3540 |
| CN1CCC[C@H]1COc1nc(N2CCN(CCCl)CC2)c2ccc(-c3cc(O)cc4ccccc34)c(F)c2n1 [Example 9, (S)-4-(4-(4-(2-chloroethyl)piperazin-1-yl)-8-fluoro-2-((1-methylpyrrolidin-2-yl)methoxy)quinazolin-7-yl)naphthalen-2-ol] | 187 | 6790 |
